The values below come from PubChem BioAssay (NCI).

Each structure is given as a SMILES string.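 Five compound concentrations were applied to cells in 96-well plates for 48 hours; endpoints were derived by simple linear interpolation of the resulting dose-response curve. GI50 marks 50% less growth. At the TGI there is no net growth.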 Where only a bound is given, the exact number is not on record here.

Test systems include EKVX NSCLC; HOP-62 NSCLC; SNB-19 CNS; RXF 393 renal; UACC-257 melanoma; DMS 114 small cell lung; SNB-78 CNS; MOLT-4 leukemia; SK-OV-3 ovarian; OVCAR-4 ovarian.
What all share (experiment): growth of human tumour cells (NCI), 48 h

As to `CCSC1=C(C)N(C=NC(C)(C)C)CC1`, the TGI in the experiment on EKVX NSCLC, in the experiment with HOP-62 NSCLC, in the experiment on SNB-19 CNS, in the experiment with RXF 393 renal, with UACC-257 melanoma and in the experiment on DMS 114 small cell lung was above 100 µM throughout. Further, the TGI in the experiment with SNB-78 CNS, in the experiment on MOLT-4 leukemia, with SK-OV-3 ovarian and in the experiment on OVCAR-4 ovarian was above 100 µM each time.

Turning to `O=C1NC2(CCCCC2)C2CCCCCC12` (centres undefined), the TGI in the experiment on EKVX NSCLC, in the experiment on HOP-62 NSCLC, with SNB-19 CNS, in the experiment with RXF 393 renal, in the experiment on UACC-257 melanoma and in the experiment on DMS 114 small cell lung was above 100 µM in each case. Besides, the TGI in the experiment on SNB-78 CNS, in the experiment on MOLT-4 leukemia, in the experiment with SK-OV-3 ovarian and in the experiment with OVCAR-4 ovarian was above 100 µM throughout.

For the molecule `CCCCOP1(=O)C=C(C)C(=C(Cl)Cl)C(C)=C1` (centres undefined), the TGI in the experiment on EKVX NSCLC is above 100 µM; with HOP-62 NSCLC it was 32.7 µM; in the experiment with SNB-19 CNS, above 77.9 µM; in the experiment on RXF 393 renal, 24.4 µM; in the experiment with UACC-257 melanoma, 11.5 µM; with DMS 114 small cell lung it was 10.8 µM. Moreover, the TGI is 6.04 µM in the experiment with SNB-78 CNS, above 48.2 µM in the experiment with MOLT-4 leukemia, 49.8 µM with SK-OV-3 ovarian and above 91.1 µM with OVCAR-4 ovarian.

For the molecule `C=C1C(=O)OCC2C(C(=O)O)=CC3C(C)C(C)=CC123` (centres undefined), the TGI is 62.6 µM with EKVX NSCLC; 31.4 µM with HOP-62 NSCLC; 40.2 µM with SNB-19 CNS; 17.7 µM with RXF 393 renal; 46 µM with UACC-257 melanoma; 33.8 µM with DMS 114 small cell lung. Moreover, the TGI came out at 117 µM in the experiment on SNB-78 CNS, 29.6 µM in the experiment on MOLT-4 leukemia, 79.5 µM in the experiment with SK-OV-3 ovarian and 20.6 µM with OVCAR-4 ovarian.

For the molecule `NC(N)=NNC(=O)CCCCCCCC(=O)NN=C(N)N`, the TGI with EKVX NSCLC, in the experiment on HOP-62 NSCLC, in the experiment with SNB-19 CNS, in the experiment on RXF 393 renal, with UACC-257 melanoma and in the experiment with DMS 114 small cell lung was above 100 µM throughout. In addition, the TGI with SNB-78 CNS, with SK-OV-3 ovarian and in the experiment on OVCAR-4 ovarian was above 100 µM in each case.

`NCCNc1cccc2ccccc12`: the TGI with EKVX NSCLC, in the experiment on HOP-62 NSCLC, in the experiment with SNB-19 CNS, in the experiment with RXF 393 renal, with UACC-257 melanoma and with DMS 114 small cell lung was above 100 µM in each case. Besides, the TGI with SNB-78 CNS, in the experiment on SK-OV-3 ovarian and in the experiment with OVCAR-4 ovarian was above 100 µM each time.

In the case of `CC(=O)O[C@]12CCCC1C1(O)C(O)CCCC12` (some centres undefined), the TGI with EKVX NSCLC, in the experiment on HOP-62 NSCLC, in the experiment with SNB-19 CNS, in the experiment with RXF 393 renal, with UACC-257 melanoma and with DMS 114 small cell lung was above 100 µM throughout. Besides, the TGI in the experiment with SNB-78 CNS, in the experiment with MOLT-4 leukemia, with SK-OV-3 ovarian and in the experiment on OVCAR-4 ovarian was above 100 µM throughout.

As to `O=C1c2c(nc3ccccc3c2-c2ccccc2)CN1Nc1ccccn1`, the TGI is above 100 µM in the experiment with EKVX NSCLC; above 100 µM in the experiment with HOP-62 NSCLC; above 100 µM in the experiment with SNB-19 CNS; above 100 µM in the experiment on RXF 393 renal; above 100 µM with UACC-257 melanoma; above 76.1 µM in the experiment with DMS 114 small cell lung. Moreover, the TGI was above 42.3 µM with SNB-78 CNS, above 100 µM in the experiment with MOLT-4 leukemia, above 100 µM in the experiment with SK-OV-3 ovarian and above 100 µM with OVCAR-4 ovarian.

With `COc1cc(/C=C2\CCC(CN(C)C)C2=O)ccc1OC(=O)c1ccccc1` (centres undefined), the TGI in the experiment with EKVX NSCLC turned out to be 28.1 µM; in the experiment with HOP-62 NSCLC, 23.5 µM; with SNB-19 CNS, 25.5 µM; in the experiment with RXF 393 renal it was 15.4 µM; in the experiment on UACC-257 melanoma it was 26.6 µM; with DMS 114 small cell lung, 40.9 µM. For the same molecule, the TGI is 39.9 µM with SNB-78 CNS, 7.03 µM with MOLT-4 leukemia, 52.4 µM in the experiment with SK-OV-3 ovarian and 25.5 µM in the experiment with OVCAR-4 ovarian.

Consider `C/C(=N\NC(N)=S)C(CN(CC(C)C)CC(C)C)C(=O)Nc1ccc(C)cc1C` (centres undefined), for which the TGI in the experiment on EKVX NSCLC, in the experiment with HOP-62 NSCLC, in the experiment on SNB-19 CNS, in the experiment on RXF 393 renal, with UACC-257 melanoma and in the experiment on DMS 114 small cell lung was above 100 µM each time. Further, the TGI in the experiment with SNB-78 CNS, in the experiment on MOLT-4 leukemia, in the experiment with SK-OV-3 ovarian and with OVCAR-4 ovarian was above 100 µM each time.

Take `Cc1cc(S(=O)(=O)O)c(NC(=O)C(=O)C2C=CCS2(=O)=O)cc1Cl` (centres undefined): the TGI in the experiment with EKVX NSCLC, with HOP-62 NSCLC, in the experiment with SNB-19 CNS, in the experiment on RXF 393 renal, with UACC-257 melanoma and in the experiment with DMS 114 small cell lung was above 100 µM each time. Also, the TGI in the experiment with SNB-78 CNS, in the experiment on MOLT-4 leukemia, in the experiment on SK-OV-3 ovarian and in the experiment on OVCAR-4 ovarian was above 100 µM throughout.

Turning to `N#C[S-].[Nd+3].c1ccc(-c2ccccn2)nc1.c1ccc(-c2ccccn2)nc1.c1ccc(-c2ccccn2)nc1`, the GI50 with EKVX NSCLC was 5.78 µM; with SNB-19 CNS, 10.7 µM; in the experiment on RXF 393 renal, 3.89 µM; in the experiment on UACC-257 melanoma, 13.5 µM; with DMS 114 small cell lung, 15.7 µM; with SNB-78 CNS, 94.2 µM. Besides, the GI50 in the experiment with SK-OV-3 ovarian was 6.93 µM; with OVCAR-4 ovarian, 49.8 µM. Also, the TGI in the experiment with EKVX NSCLC was above 100 µM; in the experiment with SNB-19 CNS, above 100 µM; in the experiment with RXF 393 renal it was 24.8 µM; with UACC-257 melanoma it was 61.2 µM; with DMS 114 small cell lung, 67.1 µM; in the experiment with SNB-78 CNS, above 100 µM. Further, the TGI in the experiment with SK-OV-3 ovarian and in the experiment on OVCAR-4 ovarian was above 100 µM throughout.

`O=C1c2c(n(Cc3ccccc3)c(=O)n2Cc2ccccc2)C(=O)N1Cc1ccccc1`: the TGI with EKVX NSCLC, in the experiment on HOP-62 NSCLC, with SNB-19 CNS, in the experiment on RXF 393 renal, with UACC-257 melanoma and with DMS 114 small cell lung was above 100 µM throughout. Besides, the TGI with SNB-78 CNS, in the experiment with MOLT-4 leukemia, in the experiment with SK-OV-3 ovarian and in the experiment with OVCAR-4 ovarian was above 100 µM in each case.
